# Experiments:
# CT26 tumors = assay: T-cell fraction and clonality by immune sequencing (mmTCRB assay); format: in vivo, mouse; settings: 5/10 tumors per group, FIG. 15
# Procedure: Animals were monitored for tumor growth and body weight 2-3 times per week based on outgrowth kinetics. Tumor diameter was measured with digital calipers, and the tumor volume in mm^3 was calculated by the formula: Volume=((width)^2×length)/2. TGI was calculated on day 15. Animals were removed from study if found moribund or if tumor volume exceeded 1400 mm^3. At that time, tumor tissue was harvested and frozen for later analysis of T-cell clonality by immune sequencing (Adaptive Biotech, San Diego, Calif.). Food, water, temperature and humidity were according to Pharmacology Testing Facility performance standards (SOP's) which are in accordance with the 1996 Guide for the Care and Use of Laboratory Animals (NRC) and AAALAC-International.
# The mechanism of combination activity was investigated by analyzing T-cell fraction and clonality by immune sequencing in 5/10 tumors from each group (FIG. 15). To determine the effect of binimetinib on the T cell repertoire of CT26 tumors, analysis was performed of mouse T-cell diversity, clonality and abundance as potential biomarkers by survey level sequencing of mouse tumor samples using the mmTCRB assay. Clonality was determined by quantitating the extent of mono- or oligoclonal expansion by measuring the shape of the clone frequency distribution. […]
# melanoma cell lines = assay: Cell surface MHC class I expression, summary over the melanoma cell line panel; format: cell-based, human
# Procedure: The goal of this study was to measure the effects of binimetinib on cell surface MHC class I expression in various melanoma cell lines. In this study, eight melanoma cell lines were evaluated: MEL-JUSO (NRAS Q61L mutation), IPC-298 (NRAS Q61L mutation), A375 (BRAF V600E, homozygous mutation), HS936.T (NRAS Q61K mutation and BRAF N581K mutation), MM485 (NRAS Q61R mutation), SK-MEL-2 (NRAS Q61R mutation), MM415 (NRAS Q61L mutation), Malme-3M (BRAF V600E, heterozygous mutation). The cells lines were seeded into flat bottom 96-well tissue culture plates at a density of 5000 cells per well and allowed to adhere overnight. The following day cells were treated with vehicle control (0.25% DMSO) or varying dilutions of Binimetinib (0.7 nM-25000 nM) for 1 hour. Cells were then treated with vehicle control or 100 ng/ml IFNgamma (R&D systems) for 72 hours. Cells were washed, trypsinized, and stained with Alexa Fluor® 647 anti-human HLA-A,B,C antibody (W6/32, eBioscience) and analyzed on a BD FACSCanto II flow cytometer. An IFNg titration and time course were performed for assay optimization. Maximal induction of MHC class I expression was seen 100 ng/mL of IFNγ (see, e.g., FIGS. 1 and 2).
# [1] = tested on: KRas mutant CT26 murine colon syngeneic tumors; assay: CT26 syngeneic tumor growth, survival and tolerability; format: in vivo; settings: table
# Procedure: 1% CMC/0.5% Tween-80 (CMCT) was prepared by adding 960 mL of distilled water to a 1000 mL Pyrex® glass bottle with a stir bar in the bottom, and was used as the oral vehicle. […] Carboxymethylcellulose (5 g, CMC, low viscosity, Sigma C5678, Batch #033K0008) was added slowly, over one hour. The solution was stirred until the CMC dissolved and the solution was clear. 30 mg/kg MEK162 (Binimetinib, 100% active) was prepared as a white, homogeneous suspension in CMCT. MEK162 was administered in 10 mL/kg and dosed at 30 mg/kg (3.0 mg/mL) by oral gavage. To prepare, dry test compound (90 mg) was weighed and 30 mL CMCT added. Dose suspension was sonicated until a fine suspension was achieved (˜15 min). Final dose suspension was stored at 4° C. during live phase and sonicated to resuspend prior to dose administration. Dose suspension was prepared every 4-5 days or as needed. […]
# Animals were monitored for tumor growth and body weight 2-3 times per week based on outgrowth kinetics. Tumor diameter was measured with digital calipers, and the tumor volume in mm^3 was calculated by the formula: Volume=((width)^2×length)/2. TGI was calculated on day 15. […]
# Survival defined as morbidity, mortality or tumor size exceeding 1400 mm3. […] Cures: Animals with no palpable tumor at the end of the study were scored as cures. […]
# [2] = Binimetinib steady state exposure quoted in figure legends; format: in vivo
compound,measurement,setting,value
"Cn1cnc2c(F)c(Nc3ccc(Br)cc3F)c(C(=O)NOCCO)cc21 [Binimetinib, 6-(4-bromo-2-fluorophenylamino)-7-fluoro-3-methyl-3H-benzoimidazole-5-carboxylic acid (2-hydroxyethoxy)-amide]",T-cell clonality,CT26 tumors,trend for decreased
same,T-cell fraction,CT26 tumors,trend for decreased
same,increase of IFNg-induced MHC class I,"melanoma cell lines; all tested cell lines, +IFNg",1.5-4 fold
same,increase in MHC class I cell surface expression,"melanoma cell lines; in the 6 of 8 melanoma cell lines that responded, no IFNg",1.5-3 fold
same,Median Survival,[1],26
same,"Steady state Cmax, free fraction",[2]; free fraction,0.026 µM
same,"Trough (day 15), free fraction","[2]; free fraction, day 15",8.1 nM
same,Cmax,"[2]; in vivo, total",1 µM
